Measurements: publication PMC9450014, “The evaluation of ADME and pharmacokinetic properties of decoquinate derivatives for the treatment of malaria” (Frontiers in Pharmacology, 2022)

Tests used:
Type in all cases: in vitro ADME
Plasma stability = conditions: human plasma
Protocol: Stock solutions of compounds in DMSO were used to spike pooled human plasma. Samples were transferred in duplicate to 6 different wells of a 96-deep well plate. An aliquot of each sample was immediately quenched with ice cold acetonitrile containing the internal standard carbamazepine (0.1 μM), after which the plate was incubated in a water bath (37°C for 1 h). Aliquots of samples were removed at 5, 15, 40, 60, and 180 min and quenched with ice cold acetonitrile. After samples of the final time point were precipitated, the supernatant was transferred to a round bottom 96-well plate for analysis by LC-MS/MS using a reverse phase Gemini NX-C18 column (5 μM, 2.1 mm × 50 mm) with a Shimadzu HPLC coupled with an AB Sciex 3200 Q TRAP MS). The peak area ratios were used to calculate the amount of parent compound remaining and t1/2 in plasma, using the following equations.
% Parent remaining % Parent= Normalised peak area of sample at timepoint/Normalised peak area of sample at t=0 x 100
Predicted t1/2 t1/2= −0.693/λ Where λ is the slope of the Ln % parent remaining vs. time curve.

[1] = Non-specific liver microsomal binding, MLM; conditions: mouse liver microsomes
Protocol: (§1) Plasma protein binding was determined in pooled human plasma using an ultracentrifugation method. Stock solutions of test compounds were diluted in phosphate buffer and spiked into plasma in deep well 96-well plates. An aliquot of each compound was immediately precipitated with ice cold acetonitrile containing the internal standard carbamazepine (0.1 μM). These served as total concentration samples. After incubation in a water bath (37°C for 1 h), samples were transferred to ultracentrifuge tubes in duplicate and centrifuged for 4 h at 37°C and 30,000 g (Optima L-80XP, Beckman). Following centrifugation, the supernatant was transferred to the plate containing the total concentration samples and precipitated with ice cold acetonitrile containing the internal standard. Samples were analysed by LC-MS/MS (Shimadzu HPLC coupled with an AB Sciex 3200 Q TRAP MS). Non-specific binding in mouse liver microsomes (MLM) and human liver microsomes (HLM) were also determined with the ultracentrifugation method. Stock solutions of compounds (10 mM) were added in duplicate to microsome solution (0.5 mg/mL) in phosphate buffer (pH 7.4) to obtain a final drug concentration of 1 μM. The same method as for plasma protein binding was utilized. Analyte concentrations of all compounds were determined via LC-MS/MS (reverse phase Gemini NX-C18 column and Shimadzu HPLC coupled with an AB Sciex 3200 Q TRAP MS).

[2] = Non-specific liver microsomal binding, HLM; conditions: human liver microsomes
Protocol: as §1

CCCCCCCCCCOc1cc2c(=O)c(C(=O)NCCOCCO)c[nH]c2cc1OCC [RMB005]
Plasma stability (in words) (Plasma stability): good plasma stability
Plasma stability (in words) (Plasma stability; listed as RMB-005): relatively stable
half-life (Plasma stability; pooled plasma, 37°C): > 2.5 h
Bound to microsomes [1]: 99%
Bound to microsomes [2]: 99%
